In PubChem BioAssay AID1963831 (Molecular Pharmacology Branch, DTP, NCI, 2024):
pIC50: −log10 of the molar value.

System: 889142-216-R-J1-PDC complex spheroid viability
Assay: Anticancer human tumor 889142-216-R-J1-PDC patient-derived bladder carcinoma cell line growth inhibition [POLQ]
Settings: for pIC50: curve of first compound; for viability, T/C: stronger effect = lower value
Summary of the method: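 PDC + HUVEC + MSC complex spheroids; POLQ inhibitors ± partner drugs; top conc. at/near clinical Cmax, else 10 microM (SN-38 1 microM), half-log dilutions; 37 degrees C, 5% CO2.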

[1] = second compound 0.0316 µM, first compound 0.0316 µM
[2] = second compound 0.0316 µM, first compound 0.1 µM
[3] = second compound 0.0316 µM, first compound 0.316 µM
[4] = second compound 0.0316 µM, first compound 1 µM
[5] = second compound 0.0316 µM, first compound 3.16 µM
[6] = second compound 0.0316 µM, first compound 10 µM
[7] = second compound 0.1 µM, first compound 0.0316 µM
[8] = second compound 0.1 µM, first compound 0.1 µM
[9] = second compound 0.1 µM, first compound 0.316 µM
[10] = second compound 0.1 µM, first compound 1 µM
[11] = second compound 0.1 µM, first compound 3.16 µM
[12] = second compound 0.1 µM, first compound 10 µM
[13] = second compound 0.316 µM, first compound 0.0316 µM
[14] = second compound 0.316 µM, first compound 0.1 µM
[15] = second compound 0.316 µM, first compound 0.316 µM
[16] = second compound 0.316 µM, first compound 1 µM
[17] = second compound 0.316 µM, first compound 3.16 µM
[18] = second compound 0.316 µM, first compound 10 µM
[19] = second compound 1 µM, first compound 0.0316 µM
[20] = second compound 1 µM, first compound 0.1 µM
[21] = second compound 1 µM, first compound 0.316 µM
[22] = second compound 1 µM, first compound 1 µM
[23] = second compound 1 µM, first compound 3.16 µM
[24] = second compound 1 µM, first compound 10 µM
[25] = second compound 3.16 µM, first compound 0.0316 µM
[26] = second compound 3.16 µM, first compound 0.1 µM
[27] = second compound 3.16 µM, first compound 0.316 µM
[28] = second compound 3.16 µM, first compound 1 µM
[29] = second compound 3.16 µM, first compound 3.16 µM
[30] = second compound 3.16 µM, first compound 10 µM
[31] = second compound 10 µM, first compound 0.0316 µM
[32] = second compound 10 µM, first compound 0.1 µM
[33] = second compound 10 µM, first compound 0.316 µM
[34] = second compound 10 µM, first compound 1 µM
[35] = second compound 10 µM, first compound 3.16 µM
[36] = second compound 10 µM, first compound 10 µM
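Further: spheroids exposed to compounds for seven days.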
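Wherever viability, T/C is given: 100% = DMSO vehicle control viability.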

Question: With `C#Cc1c(F)ccc2cc(O)cc(-c3ncc4c(N5CC6CCC(C5)N6)nc(OCC56CCCN5CC(F)C6)nc4c3F)c12` (stereo unspecified) + Cc1cccc(N(C)C(=O)C2C(O)CCN2c2nc(C)cc(C(F)(F)F)c2C#N)c1 as the molecule, how does the pIC50 (second compound 0.0316 µM) read?
Answer: 5.22

Question: What about the pIC50 (second compound 0.1 µM) of the same molecule?
Answer: 5.30

Question: And the pIC50 (second compound 0.316 µM)?
Answer: 5.28

Question: And the pIC50 (second compound 1 µM)?
Answer: 5.11

Question: And the pIC50 (second compound 3.16 µM)?
Answer: 5.30

Question: What about the pIC50 (second compound 10 µM) of the same molecule?
Answer: 5.30

Question: And the viability, T/C [1]?
Answer: 106%

Question: And the viability, T/C [2]?
Answer: 87.8%

Question: What about the viability, T/C [3] of the same molecule?
Answer: 82.6%

Question: What about the viability, T/C [4] of the same molecule?
Answer: 103%

Question: And the viability, T/C [5]?
Answer: 74.8%

Question: What about the viability, T/C [6] of the same molecule?
Answer: 31.1%

Question: What about the viability, T/C [7] of the same molecule?
Answer: 104%

Question: What about the viability, T/C [8] of the same molecule?
Answer: 100%

Question: And the viability, T/C [9]?
Answer: 78.3%

Question: What about the viability, T/C [10] of the same molecule?
Answer: 97.8%

Question: What about the viability, T/C [11] of the same molecule?
Answer: 62%

Question: What about the viability, T/C [12] of the same molecule?
Answer: 31.9%

Question: What about the viability, T/C [13] of the same molecule?
Answer: 90.2%

Question: What about the viability, T/C [14] of the same molecule?
Answer: 81.3%

Question: What about the viability, T/C [15] of the same molecule?
Answer: 66.4%

Question: And the viability, T/C [16]?
Answer: 93.7%

Question: And the viability, T/C [17]?
Answer: 60.8%

Question: And the viability, T/C [18]?
Answer: 36.3%

Question: What about the viability, T/C [19] of the same molecule?
Answer: 88.6%

Question: What about the viability, T/C [20] of the same molecule?
Answer: 69.1%

Question: And the viability, T/C [21]?
Answer: 94%

Question: And the viability, T/C [22]?
Answer: 71.2%

Question: What about the viability, T/C [23] of the same molecule?
Answer: 108%

Question: What about the viability, T/C [24] of the same molecule?
Answer: 39.7%

Question: And the viability, T/C [25]?
Answer: 98.2%

Question: And the viability, T/C [26]?
Answer: 85.2%

Question: What about the viability, T/C [27] of the same molecule?
Answer: 64.8%

Question: And the viability, T/C [28]?
Answer: 74%

Question: What about the viability, T/C [29] of the same molecule?
Answer: 72.5%

Question: What about the viability, T/C [30] of the same molecule?
Answer: 30.5%

Question: And the viability, T/C [31]?
Answer: 79.3%

Question: And the viability, T/C [32]?
Answer: 71.4%

Question: What about the viability, T/C [33] of the same molecule?
Answer: 65.8%

Question: And the viability, T/C [34]?
Answer: 69.7%

Question: And the viability, T/C [35]?
Answer: 73%

Question: And the viability, T/C [36]?
Answer: 17.2%

Question: `CC[C@@]1(O)C(=O)OCc2c1cc1n(c2=O)Cc2cc3c(CN(C)C)c(O)ccc3nc2-1` + Nc1ccc(C#CCN(C(=O)Cc2ncc(C(F)(F)F)cc2C(F)(F)F)c2ccc(F)cc2)nn1 was tested. Which pIC50 (second compound 0.0316 µM) did it give?
Answer: < 7.00

Question: What about the pIC50 (second compound 0.1 µM) of the same molecule?
Answer: < 7.00

Question: And the pIC50 (second compound 0.316 µM)?
Answer: < 7.00

Question: What about the pIC50 (second compound 1 µM) of the same molecule?
Answer: < 7.00

Question: What about the pIC50 (second compound 3.16 µM) of the same molecule?
Answer: < 7.00

Question: What about the pIC50 (second compound 10 µM) of the same molecule?
Answer: < 7.00

Question: What about the viability, T/C (second compound 0.0316 µM, first compound 0.000316 µM) of the same molecule?
Answer: 101%

Question: And the viability, T/C (second compound 0.0316 µM, first compound 0.001 µM)?
Answer: 78.3%

Question: What about the viability, T/C (second compound 0.0316 µM, first compound 0.00316 µM) of the same molecule?
Answer: 95.8%

Question: And the viability, T/C (second compound 0.0316 µM, first compound 0.01 µM)?
Answer: 87.9%

Question: And the viability, T/C [1]?
Answer: 67.5%

Question: What about the viability, T/C [2] of the same molecule?
Answer: 56.1%

Question: And the viability, T/C (second compound 0.1 µM, first compound 0.000316 µM)?
Answer: 99.4%

Question: What about the viability, T/C (second compound 0.1 µM, first compound 0.001 µM) of the same molecule?
Answer: 89.4%

Question: What about the viability, T/C (second compound 0.1 µM, first compound 0.00316 µM) of the same molecule?
Answer: 91.3%

Question: And the viability, T/C (second compound 0.1 µM, first compound 0.01 µM)?
Answer: 75.2%

Question: What about the viability, T/C [7] of the same molecule?
Answer: 59.7%

Question: What about the viability, T/C [8] of the same molecule?
Answer: 52.4%

Question: And the viability, T/C (second compound 0.316 µM, first compound 0.000316 µM)?
Answer: 86.8%

Question: And the viability, T/C (second compound 0.316 µM, first compound 0.001 µM)?
Answer: 77.6%

Question: And the viability, T/C (second compound 0.316 µM, first compound 0.00316 µM)?
Answer: 116%

Question: And the viability, T/C (second compound 0.316 µM, first compound 0.01 µM)?
Answer: 94.8%

Question: What about the viability, T/C [13] of the same molecule?
Answer: 54.7%

Question: And the viability, T/C [14]?
Answer: 59.2%

Question: And the viability, T/C (second compound 1 µM, first compound 0.000316 µM)?
Answer: 86.9%

Question: And the viability, T/C (second compound 1 µM, first compound 0.001 µM)?
Answer: 67.1%

Question: And the viability, T/C (second compound 1 µM, first compound 0.00316 µM)?
Answer: 109%

Question: And the viability, T/C (second compound 1 µM, first compound 0.01 µM)?
Answer: 70.7%

Question: What about the viability, T/C [19] of the same molecule?
Answer: 63.1%

Question: What about the viability, T/C [20] of the same molecule?
Answer: 55.9%

Question: And the viability, T/C (second compound 3.16 µM, first compound 0.000316 µM)?
Answer: 87.1%

Question: And the viability, T/C (second compound 3.16 µM, first compound 0.001 µM)?
Answer: 74.4%

Question: What about the viability, T/C (second compound 3.16 µM, first compound 0.00316 µM) of the same molecule?
Answer: 109%

Question: What about the viability, T/C (second compound 3.16 µM, first compound 0.01 µM) of the same molecule?
Answer: 89.4%

Question: And the viability, T/C [25]?
Answer: 57.4%

Question: What about the viability, T/C [26] of the same molecule?
Answer: 52.6%

Question: What about the viability, T/C (second compound 10 µM, first compound 0.000316 µM) of the same molecule?
Answer: 121%

Question: And the viability, T/C (second compound 10 µM, first compound 0.001 µM)?
Answer: 135%

Question: And the viability, T/C (second compound 10 µM, first compound 0.00316 µM)?
Answer: 86.2%

Question: What about the viability, T/C (second compound 10 µM, first compound 0.01 µM) of the same molecule?
Answer: 72.6%

Question: And the viability, T/C [31]?
Answer: 70.5%

Question: And the viability, T/C [32]?
Answer: 53.4%

Question: With `Nc1ccn(C2OC(CO)C(O)C2(F)F)c(=O)n1` (stereo unspecified) + Nc1ccc(C#CCN(C(=O)Cc2ncc(C(F)(F)F)cc2C(F)(F)F)c2ccc(F)cc2)nn1 as the molecule, how does the pIC50 (second compound 0.0316 µM) read?
Answer: 6.63

Question: What about the pIC50 (second compound 0.1 µM) of the same molecule?
Answer: 6.41

Question: What about the pIC50 (second compound 0.316 µM) of the same molecule?
Answer: 6.44

Question: What about the pIC50 (second compound 1 µM) of the same molecule?
Answer: 6.53

Question: And the pIC50 (second compound 3.16 µM)?
Answer: 5.47

Question: What about the pIC50 (second compound 10 µM) of the same molecule?
Answer: 5.28

Question: And the viability, T/C [1]?
Answer: 74.1%

Question: And the viability, T/C [2]?
Answer: 56.1%

Question: What about the viability, T/C [3] of the same molecule?
Answer: 46%

Question: What about the viability, T/C [4] of the same molecule?
Answer: 45.2%

Question: And the viability, T/C [5]?
Answer: 40.9%

Question: And the viability, T/C [6]?
Answer: 35.9%

Question: And the viability, T/C [7]?
Answer: 62.8%

Question: What about the viability, T/C [8] of the same molecule?
Answer: 57.8%

Question: What about the viability, T/C [9] of the same molecule?
Answer: 48.9%

Question: And the viability, T/C [10]?
Answer: 47.2%

Question: And the viability, T/C [11]?
Answer: 38.8%

Question: And the viability, T/C [12]?
Answer: 34.5%

Question: And the viability, T/C [13]?
Answer: 61.8%

Question: And the viability, T/C [14]?
Answer: 56.1%

Question: And the viability, T/C [15]?
Answer: 50.9%

Question: And the viability, T/C [16]?
Answer: 44%

Question: And the viability, T/C [17]?
Answer: 45.6%

Question: What about the viability, T/C [18] of the same molecule?
Answer: 39.6%

Question: And the viability, T/C [19]?
Answer: 69.8%

Question: What about the viability, T/C [20] of the same molecule?
Answer: 55.6%

Question: And the viability, T/C [21]?
Answer: 47%

Question: What about the viability, T/C [22] of the same molecule?
Answer: 48.5%

Question: And the viability, T/C [23]?
Answer: 43.5%

Question: And the viability, T/C [24]?
Answer: 36.7%

Question: What about the viability, T/C [25] of the same molecule?
Answer: 56.4%

Question: What about the viability, T/C [26] of the same molecule?
Answer: 60.7%

Question: And the viability, T/C [27]?
Answer: 60%

Question: What about the viability, T/C [28] of the same molecule?
Answer: 55.7%

Question: And the viability, T/C [29]?
Answer: 49.5%

Question: And the viability, T/C [30]?
Answer: 39.7%

Question: What about the viability, T/C [31] of the same molecule?
Answer: 88.9%

Question: And the viability, T/C [32]?
Answer: 73.6%

Question: And the viability, T/C [33]?
Answer: 69.5%

Question: And the viability, T/C [34]?
Answer: 51.7%

Question: What about the viability, T/C [35] of the same molecule?
Answer: 55.7%

Question: And the viability, T/C [36]?
Answer: 46.5%
